The assay has as its target T1, GPR119 (WT mouse descending colon mucosa) (Mus musculus, UniProt Q7TQP3).
T1 construct: native full-length receptor in L-cells of intact mouse colonic mucosa (Ussing chamber); no recombinant protein
T1 sequence (Q7TQP3 1-335): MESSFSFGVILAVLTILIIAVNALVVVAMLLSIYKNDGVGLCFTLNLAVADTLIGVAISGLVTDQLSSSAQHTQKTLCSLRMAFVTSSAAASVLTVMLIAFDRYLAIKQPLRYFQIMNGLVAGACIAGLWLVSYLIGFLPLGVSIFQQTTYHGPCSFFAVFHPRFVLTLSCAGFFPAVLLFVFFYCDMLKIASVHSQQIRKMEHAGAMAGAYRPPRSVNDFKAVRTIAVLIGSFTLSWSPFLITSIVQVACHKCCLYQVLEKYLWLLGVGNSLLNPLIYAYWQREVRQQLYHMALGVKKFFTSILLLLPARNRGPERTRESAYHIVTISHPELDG
As to the kind of experiment: short-circuit current (Isc) in native mouse descending colon mucosa, Ussing chamber. Conditions: agonist, apical addition, indirect tissue read-out (PYY-mediated fall in Isc) after 10 nM VIP, 11.1 mM glucose. The text has this: short-circuit current (Isc) in native mouse descending colon mucosa, Ussing chamber on GPR119 (WT mouse descending colon mucosa)

pEC50: −log10 of the molar value.

Regarding `CC(C)c1noc(C2CCN(c3ncnc(Nc4ccc(S(C)(=O)=O)cc4F)c3[N+](=O)[O-])CC2)n1` [AR231453], the pEC50 (partial agonist) is 8.92. Take AR435707: the negative-log EC50 (pEC50) was 7.56. The same measure, in the same setting: the result for `CCCCCCCC/C=C\CCCCCCCC(=O)OC(CO)CO` [2-OG] reads 5.31; that for AR440006, 6.77.

As for `CCCCCCCC/C=C\CCCCCCCC(=O)NCCO` [OEA], the negative logarithm of the EC50 (pEC50) was 4.83.

Broadly, the pEC50 is the negative decadic logarithm of the EC50, by convention in mol/L.

These data come from paper PMC5972582, “Bidirectional GPR119 Agonism Requires Peptide YY and Glucose for Activity in Mouse and Human Colon Mucosa” (Endocrinology, 2018).
